Laboratory results reported in ChEMBL document CHEMBL4308888, “Discovery of novel pyruvate dehydrogenase kinases inhibitors by screening of an in-house small molecule library for anti-lung cancer therapeutics” (Bioorg Med Chem Lett, 2019).
Activity calls are given as the source filed them. The rule behind the calls is not given here.

Columns and labels:
[1] = molecular target: [Pyruvate dehydrogenase (acetyl-transferring)] kinase isozyme 2, mitochondrial (Homo sapiens, UniProt Q15119); experiment: Binding affinity to SUMO-fused/His-tagged PDK2 (unknown origin) expressed in Escherichia coli by isothermal calorimetric titration analysis
[2] = molecular target: T1, Pyruvate dehydrogenase kinase (Homo sapiens) (UniProt Q15119+Q15120+Q16654+Q15118); experiment: Inhibition of PDK in human NCI-H1975 cells assessed as reduction in phosphorylated S293 PDC E1 level at 10 uM by ELISA; assay type: cell-based
[3] = molecular target: T2, [Pyruvate dehydrogenase (acetyl-transferring)] kinase isozyme 1, mitochondrial (Homo sapiens, UniProt Q15118); experiment: Potency index, ratio of DCA EC50 to test compound EC50 for inhibition of PDK1 (unknown origin)
[4] = molecular target: T2, [Pyruvate dehydrogenase (acetyl-transferring)] kinase isozyme 1, mitochondrial; experiment: Inhibition of PDK1 (unknown origin) using PDH E1 as substrate measured after 30 mins by kinase-glo assay
[5] = molecular target: T2, [Pyruvate dehydrogenase (acetyl-transferring)] kinase isozyme 1, mitochondrial; experiment: Inhibition of PDK1 (unknown origin) at 10 uM using PDH E1 as substrate measured after 30 mins by kinase-glo assay relative to control
[6] = molecular target: T2, [Pyruvate dehydrogenase (acetyl-transferring)] kinase isozyme 1, mitochondrial; experiment: Binding affinity to SUMO-fused/His-tagged PDK1 (unknown origin) expressed in Escherichia coli by isothermal calorimetric titration analysis
[7] = molecular target: [Pyruvate dehydrogenase (acetyl-transferring)] kinase isozyme 3, mitochondrial (Homo sapiens, UniProt Q15120); experiment: Binding affinity to SUMO-fused/His-tagged PDK3 (unknown origin) expressed in Escherichia coli by isothermal calorimetric titration analysis
[8] = system: NCI-H1975; experiment: Antiproliferative activity against human NCI-H1975 cells assessed as reduction in cell viability at 20 mM after 72 hrs by MTT assay; assay type: functional, cell-based
[9] = system: NCI-H1650; experiment: Antiproliferative activity against human NCI-H1650 cells assessed as reduction in cell viability after 72 hrs by MTT assay; assay type: functional, cell-based; settings: NCI-H1650, 72 h
[10] = molecular target: T2, [Pyruvate dehydrogenase (acetyl-transferring)] kinase isozyme 1, mitochondrial; settings: 10 mM
Description: Inhibition of PDK1 (unknown origin) at 10 mM using PDH E1 as substrate measured after 30 mins by kinase-glo assay relative to control

[11] = system: A549; experiment: cells; settings: Homo sapiens, A549, 72 h
Description: Antiproliferative activity against human A549 cells assessed as reduction in cell viability after 72 hrs by MTT assay

[12] = system: NCI-H1975; experiment: Antiproliferative activity against human NCI-H1975 cells assessed as reduction in cell viability at 10 uM after 72 hrs by MTT assay; assay type: functional, cell-based
[13] = molecular target: [Pyruvate dehydrogenase (acetyl-transferring)] kinase isozyme 4, mitochondrial (Homo sapiens, UniProt Q16654); experiment: Binding affinity to SUMO-fused/His-tagged PDK4 (unknown origin) expressed in Escherichia coli by isothermal calorimetric titration analysis
[14] = molecular target: T1, Pyruvate dehydrogenase kinase (Homo sapiens); experiment: Inhibition of PDK in human NCI-H1975 cells assessed as reduction in phosphorylated S293 PDC E1 level by Western blot analysis; assay type: cell-based
[15] = molecular target: T1, Pyruvate dehydrogenase kinase (Homo sapiens); experiment: Inhibition of PDK in human NCI-H1975 cells assessed as reduction in phosphorylated S293 PDC E1 level by ELISA; assay type: cell-based
[16] = system: MRC5; experiment: Cytotoxicity against human MRC5 cells assessed as reduction in cell viability up to 40 uM after 72 hrs by MTT assay; assay type: cell-based; settings: mrc5, 72 h
[17] = molecular target: T1, Pyruvate dehydrogenase kinase (Homo sapiens); experiment: Inhibition of PDK in human NCI-H1975 cells assessed as switch of pyruvate metabolism from lactate production to oxidative phosphorylation by measuring decrease in lactate production at 1 to 10 uM measured after 4 hrs; assay type: cell-based
[18] = system: NCI-H1975; experiment: Antiproliferative activity against human NCI-H1975 cells assessed as reduction in cell viability after 72 hrs by MTT assay; assay type: functional, cell-based; settings: NCI-H1975, 72 h
[19] = molecular target: T1, Pyruvate dehydrogenase kinase (Homo sapiens); experiment: Inhibition of PDK in human NCI-H1975 cells assessed as switch of pyruvate metabolism from lactate production to oxidative phosphorylation by measuring increase in oxygen consumption rate measured after 2 hrs; assay type: cell-based
[20] = molecular target: T1, Pyruvate dehydrogenase kinase (Homo sapiens); experiment: Inhibition of PDK in human NCI-H1975 cells assessed as switch of pyruvate metabolism from lactate production to oxidative phosphorylation by measuring increase in ROS production at 1 to 10 uM measured after 4 hrs by DCFH-DA dye based assay; assay type: cell-based

Sequence of [Pyruvate dehydrogenase (acetyl-transferring)] kinase isozyme 3, mitochondrial (Q15120 whole entry, the tested form may be a part): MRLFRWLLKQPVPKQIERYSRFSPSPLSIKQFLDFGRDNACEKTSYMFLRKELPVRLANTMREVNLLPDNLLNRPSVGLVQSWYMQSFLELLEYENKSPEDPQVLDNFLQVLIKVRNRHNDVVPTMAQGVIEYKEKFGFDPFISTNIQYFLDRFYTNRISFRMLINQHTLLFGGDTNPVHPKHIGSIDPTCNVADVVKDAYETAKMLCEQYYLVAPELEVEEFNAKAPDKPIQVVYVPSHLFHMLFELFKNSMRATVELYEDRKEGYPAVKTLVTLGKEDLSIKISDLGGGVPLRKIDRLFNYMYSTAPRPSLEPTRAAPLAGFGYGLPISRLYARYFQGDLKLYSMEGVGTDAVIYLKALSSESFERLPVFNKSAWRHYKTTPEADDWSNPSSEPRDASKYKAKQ
T2 sequence (Q15118 whole entry): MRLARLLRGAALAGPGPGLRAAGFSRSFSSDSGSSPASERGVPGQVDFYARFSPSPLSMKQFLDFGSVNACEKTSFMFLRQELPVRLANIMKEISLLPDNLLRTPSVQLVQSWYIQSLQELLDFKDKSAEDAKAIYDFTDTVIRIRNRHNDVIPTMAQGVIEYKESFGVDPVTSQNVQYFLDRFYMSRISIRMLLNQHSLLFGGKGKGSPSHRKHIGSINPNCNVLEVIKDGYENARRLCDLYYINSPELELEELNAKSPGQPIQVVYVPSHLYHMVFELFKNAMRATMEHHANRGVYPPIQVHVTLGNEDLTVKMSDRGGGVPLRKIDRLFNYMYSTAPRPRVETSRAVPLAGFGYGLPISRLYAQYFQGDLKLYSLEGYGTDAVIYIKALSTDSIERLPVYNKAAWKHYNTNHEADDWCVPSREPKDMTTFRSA
Sequence of [Pyruvate dehydrogenase (acetyl-transferring)] kinase isozyme 4, mitochondrial (Q16654 whole entry, the tested form may be a part): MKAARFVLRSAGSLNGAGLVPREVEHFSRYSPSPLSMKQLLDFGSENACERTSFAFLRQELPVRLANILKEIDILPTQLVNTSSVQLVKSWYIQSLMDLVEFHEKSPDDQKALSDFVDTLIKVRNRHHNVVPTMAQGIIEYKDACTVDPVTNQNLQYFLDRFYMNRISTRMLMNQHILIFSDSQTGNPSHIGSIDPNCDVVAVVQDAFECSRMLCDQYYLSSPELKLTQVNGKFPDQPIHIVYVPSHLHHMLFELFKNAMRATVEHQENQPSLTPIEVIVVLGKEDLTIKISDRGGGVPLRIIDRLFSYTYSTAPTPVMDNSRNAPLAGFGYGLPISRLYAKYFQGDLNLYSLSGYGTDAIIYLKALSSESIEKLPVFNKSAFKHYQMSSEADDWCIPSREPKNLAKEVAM

Row | SMILES | Kd [1] [µM] | inhibition [2] | Ratio EC50 [3] | EC50 [4] [µM] | inhibition [5] [%] | Kd [6] [µM] | Kd [7] [µM] | Activity [8] | IC50 [9] [µM] | inhibition [10] [%] | IC50 [11] [µM] | Activity [12] | Kd [13] [µM] | inhibition [14] | inhibition [15] | Activity [16] | inhibition [17] | IC50 [18] [µM] | inhibition [19] | inhibition [20]
1 | CC(C)=CCN1CCN(Cc2c(C)n(C)n(-c3ccccc3)c2=O)C[C@@H]1CCO | 15.9 | Active | > 1000 | 4.64 | 86.9 | 10.5 | 8.9 | – | – | – | – | – | – | – | – | – | – | – | – | –
2 | O=C([O-])C(Cl)Cl.[Na+] [SODIUM DICHLOROACETATE] | – | – | – | – | – | – | – | Active | 16300 | 64.2 | – | – | – | – | – | – | – | – | – | –
3 | O=C(c1ccccc1)C(Cl)Cl | – | – | – | – | – | – | – | – | 7.9 | – | 4.7 | Active | – | – | – | – | – | – | – | –
4 | CCCCN(Cc1ccncc1)C(=O)c1cc(-c2ccccc2O)n[nH]1 | 2.9 | Active | > 1000 | 1.99 | 89.6 | 5.8 | 7.8 | – | – | – | – | – | 10.7 | – | – | – | – | – | – | –
5 | CN(Cc1cnc2ccccn12)C(=O)c1cc(COc2ccc3c(c2)OCO3)[nH]n1 | 2 | Active | > 1000 | 0.5 | 95.6 | 1.1 | 4.7 | – | 15.7 | – | 17.8 | Active | 2.6 | Dose-dependent effect | Dose-dependent effect | Non-Toxic | – | – | – | –
6 | OCCn1nc(C2CCOCC2)nc1[C@@H]1CCCCN1Cc1ccccc1 | 3.7 | Active | > 1000 | 0.42 | 93.7 | 0.89 | 2.1 | – | 7.6 | – | 5.9 | Active | 7.9 | Dose-dependent effect | Dose-dependent effect | Non-Toxic | Active | 3.32 | Dose-dependent effect | Active
